In the experiment the target is VCAM-1 and VLA-4 binding (J6 cells, which express VLA-4) (Homo sapiens, UniProt P05556+P13612). The following applies: J6 cells + 1 mM Mn2+; EDTA added at the 110 minute mark; FIG. 4.
Chain of VCAM-1 and VLA-4 binding (J6 cells, which express VLA-4) (P13612 34-1032): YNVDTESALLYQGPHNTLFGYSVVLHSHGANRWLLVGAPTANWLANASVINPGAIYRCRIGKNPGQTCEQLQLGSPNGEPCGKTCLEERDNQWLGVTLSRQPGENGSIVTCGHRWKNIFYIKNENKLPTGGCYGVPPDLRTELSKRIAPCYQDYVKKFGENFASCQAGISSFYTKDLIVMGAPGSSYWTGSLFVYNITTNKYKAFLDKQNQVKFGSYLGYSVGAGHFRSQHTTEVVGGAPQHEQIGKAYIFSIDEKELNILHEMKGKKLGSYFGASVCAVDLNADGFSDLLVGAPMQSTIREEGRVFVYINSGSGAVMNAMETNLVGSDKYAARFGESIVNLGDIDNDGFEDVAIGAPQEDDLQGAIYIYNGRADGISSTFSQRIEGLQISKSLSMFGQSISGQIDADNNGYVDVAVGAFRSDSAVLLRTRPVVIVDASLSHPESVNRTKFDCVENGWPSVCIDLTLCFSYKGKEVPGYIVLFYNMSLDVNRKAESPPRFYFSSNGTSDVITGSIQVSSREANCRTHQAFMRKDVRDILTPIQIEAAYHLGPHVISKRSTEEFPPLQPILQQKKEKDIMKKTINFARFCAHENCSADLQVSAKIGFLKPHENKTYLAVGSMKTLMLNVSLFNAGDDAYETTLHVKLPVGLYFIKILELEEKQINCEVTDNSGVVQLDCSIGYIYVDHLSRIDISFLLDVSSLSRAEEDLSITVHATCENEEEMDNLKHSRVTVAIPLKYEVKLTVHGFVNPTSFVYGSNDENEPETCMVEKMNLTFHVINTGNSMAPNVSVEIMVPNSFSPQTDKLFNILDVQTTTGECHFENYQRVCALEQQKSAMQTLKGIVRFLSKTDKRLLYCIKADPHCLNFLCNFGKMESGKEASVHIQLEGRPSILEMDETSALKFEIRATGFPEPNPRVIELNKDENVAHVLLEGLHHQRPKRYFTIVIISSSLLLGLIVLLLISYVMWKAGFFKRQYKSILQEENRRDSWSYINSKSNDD
Chain of VCAM-1 and VLA-4 binding (J6 cells, which express VLA-4) (P05556 21-798): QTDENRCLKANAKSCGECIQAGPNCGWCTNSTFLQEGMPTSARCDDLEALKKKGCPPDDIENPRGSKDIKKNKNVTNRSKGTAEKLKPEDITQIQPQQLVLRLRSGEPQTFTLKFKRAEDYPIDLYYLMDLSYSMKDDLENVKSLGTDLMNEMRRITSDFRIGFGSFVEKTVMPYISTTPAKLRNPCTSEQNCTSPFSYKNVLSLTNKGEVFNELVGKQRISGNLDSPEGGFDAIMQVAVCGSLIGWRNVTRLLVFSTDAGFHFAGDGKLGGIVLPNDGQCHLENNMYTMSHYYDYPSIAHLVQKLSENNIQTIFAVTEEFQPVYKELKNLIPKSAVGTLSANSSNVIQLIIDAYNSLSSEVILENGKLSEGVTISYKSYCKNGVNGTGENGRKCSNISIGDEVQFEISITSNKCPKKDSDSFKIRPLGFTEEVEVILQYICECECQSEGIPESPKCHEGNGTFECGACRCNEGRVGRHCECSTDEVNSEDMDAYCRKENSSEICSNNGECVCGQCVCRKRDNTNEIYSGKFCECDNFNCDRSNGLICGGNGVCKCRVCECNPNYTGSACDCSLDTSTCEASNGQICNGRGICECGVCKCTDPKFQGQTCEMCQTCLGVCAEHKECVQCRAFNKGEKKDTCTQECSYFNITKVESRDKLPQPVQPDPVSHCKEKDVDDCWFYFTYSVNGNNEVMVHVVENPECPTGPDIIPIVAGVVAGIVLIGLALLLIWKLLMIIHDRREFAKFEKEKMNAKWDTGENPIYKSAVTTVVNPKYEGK

Method: VCAM-1 can be fused or bound to a ZZ-binding domain from Protein A. The ZZ-binding domain will specifically bind to IgG immobilized on the surface of the biosensor. Cells that express VLA-4 will bind to the VCAM-1 adhesion protein, which is bound to IgG immobilized to the surface of the biosensor. Therefore cells expressing an adhesion protein ligand will be immobilized to the biosensor surface.
VCAM-1, which was fused to the ZZ-binding domain of Protein A, was added to a biosensor having IgG immobilized to its surface. J6 cells, which express VLA-4, were added to the biosensor surface. […] The “J6 cells+1 mM Mn^2+” and “Buffer” lines shown in FIG. 4 both contained J6 cells and 1 mM Mn^2+. The “J6 cells and EDTA” line contained J6 cells and EDTA. At the 110 minute mark, EDTA was added to the “J6 cells+1 mM Mn^2+” cells.

With `O=C(O)CN(CCN(CC(=O)O)CC(=O)O)CC(=O)O` [EDTA], the “amount of binding of cells to the VCAM-1 immobilized to the surface of the biosensor” value is reported as “quickly dropped off”.

The values above are taken from patent US8372592B2, “High resolution label free analysis of cellular properties” (X-Body, Inc., priority 2008, dated 2013).
